# Source: patent publication US9908896B2, “P38 and JNK MAPK inhibitors for the treatment and prophylaxis of degenerative diseases of the nervous system” (ALLINKY BIOPHARMA, priority 2014, dated 2018)
# Where “and” joins values, the source holds several entries; their conditions need not be identical. Equal values may be shown once. Read-outs that look alike come from different tables or passages of the source.
# Experiments:
# [1] = Single dose i.p. and i.v. blood brain barrier permeability study, plasma and brain concentration (LC-MS/MS); format: in vivo, male Sprague Dawley rat; conditions: for concentration at 2 h: male, Sprague Dawley, 10 mg/kg
# Procedure: The objective of these tests was to determine the plasma and brain concentration of the compound 1 in male Sprague Dawley rat after single intraperioneal (i.p.) and intravenous (i.v.) administration.
# The compound 1 was administered intravenously (i.v.) through tail vein and intraperitoneally (i.p.) in abdominal cavity. After dosing of each animal, the time was documented.
# Formulation vehicle: 20 Vol.-% Cremophore, 10 Vol.-% ethanol, 70 Vol.-% normal saline
# Bioanalysis was performed using fit-for-purpose LC-MS/MS method for the quantification of test compounds in plasma samples and brain homogenate. The method was validated for calibration curve consisted of nine non-zero calibration standards along with a double blank and zero standard samples. Study samples were analysed along with two sets of quality control samples (6 QC samples; low, medium and high QC sample).
# Sample Process: Blood samples were placed on ice prior to centrifugation and centrifuged within 15 min at 5000 rpm for 10 min at 4° C.
# Immediately after blood withdrawal, in situ brain perfusion was performed using chilled saline. The chest of the rat was exposed, the abdominal aorta was clamped and both jugular veins were cut. Intra-cardial perfusion was performed through an insertion in the left ventricle. Perfusion of each rat was followed by exanguination for brain collection. The skin over the cranium was incised and deflected. The head was flexed and a cut was made through the muscles and the spinal cord at the junction of the foreman magnum and atlas vertebra. A circumferential incision was carefully made in the cranium using a bone cutter. The roof of the cranium was lifted off to expose the meninges and brain. The meninges were removed carefully. Then holding the head with the nose pointing upward, the anterior part of the brain was lifted to separate the brain. Separated brain was immediately weighed and frozen at −80±10° C. until homogenization.
# Brain samples were thawed on ice. An appropriate volume of ice cold homogenizing media (Normal Saline) was added. Brain samples were homogenized on ice with the Polytron® homogenizer and volume was adjusted with homogenizing media to achieve 1 g of brain per 5 ml of homogenate. After homogenization, the brain homogenate were immediately frozen at −80° C. until analysis.
# [2] = tested on: TNF-α secretion by a human monocytic cell line, THP-1; experiment: Inhibition of TNF-α secretion by LPS-stimulated THP-1 cells (ELISA); format: cell-based; conditions: LPS-stimulated THP-1, TNF-α
# Procedure: Thp1-Inhibition of TNF-α Secretion by a Human Monocytic Cell Line, THP-1
# THP-1 cells, growing in log phase, were collected by centrifugation and resuspended in RPMI 1640 (Sigma Aldrich), to a final cell concentration of 2×10^6 cells/ml. Cells were plated into 24-well plates (BD Biosciences). Dilutions of compounds in dimethyl sulfoxide (DMSO) were added to the culture to a final concentration M. The final DMSO concentration was 0.5%. The cells […] suspensions were preincubated with compounds for 1 h at 37° C. in a 5% CO2 humidified atmosphere before the addition of LPS (Sigma Aldrich, L2654) to a g/ml. After that, cells were incubated for 3 h followed final concentration of […] by centrifugation to pellet cells. Cell supernatants were stored at 4° C. until human analysis for TNF-α content. TNF-α levels were determined by ELISA (TNF Biotrak, GE Healthcare) following the manufacturer's directions. The percentage inhibition was calculated for each compound concentration tested, and the IC50 was calculated for each compound.
# [3] = tested on: Aβ25-35-induced learning deficits; experiment: Novel object recognition after i.c.v. Aβ25-35 injection; format: in vivo, male Sprague Dawley rats; conditions: 10 mg/kg i.v. once a day
# Procedure: The purpose of the study was to determine whether the test compound 1 can alleviate the pathology produced in rats by the acute intracerebroventricular (i.c.v) injection of an oligomeric Aβ25-35 peptide preparation. The compound efficacy was evaluated 7 days after the peptide administration, on: • the attenuation of the Aβ25-35-induced learning deficits (recognition long-term memory: novel object recognition); • the attenuation of the Aβ25-35-induced Aβ^1-42 accumulation in the rat hippocampus. One administration procedure was examined: the compound 1 (10 mg/kg) administered intraveinously (i.v.) once a day during 9 days. […] On day 8 and 9, the recognition long-term memory of the animals was assessed using the novel object recognition (NOR) procedure. […] Each rat was placed in the open-field and the exploratory activity recorded during a 10-min duration session. The activity was analyzed using the Nosetrack® protocol (Viewpoint), in terms of number of contact with objects and duration of contacts. […] Each rat was placed again in the open-field and the exploratory activity recorded during a 10-min duration session. The activity was analyzed similarly. The preferential exploration index was calculated as the ratio of the number (or duration) of contacts with the object in position #1 over the total number for duration) of contacts with the two objects. […]
structure (smiles),measurement,setting,value
CCCOc1ccc(Nc2nc3nonc3nc2N2CCC(Oc3ccc(Cl)cc3)CC2)cc1 [Comp 1],"Concentration in rat brain homogenate i.p. at 2 h, individual rats","[1]; 10 mg/kg i.p., rats R1, R2, R3",31.30 ng/g and 44.55 ng/g
same,"Concentration in rat plasma i.p. at 2 h, individual rats","[1]; 10 mg/kg i.p., rats R1, R2, R3",63.64 ng/mL and 87.75 ng/mL
same,"Concentration in rat brain homogenate i.v. at 2 h, individual rats","[1]; 10 mg/kg i.v., rats R1, R2, R3",394.80 ng/g and 439.45 ng/g
same,"Concentration in rat plasma i.v. at 2 h, individual rats","[1]; 10 mg/kg i.v., rats R1, R2, R3",293.38 ng/mL and 156.26 ng/mL
same,concentration at 2 h,"[1]; rat, brain homogenate, intraperitoneal, 10 mg/kg i.p., mean of 3 rats, read-out: Concentration in rat brain homogenate i.p. at 2 h, Mean",41.6 ng/g
same,concentration at 2 h,"[1]; rat, brain homogenate, intraperitoneal, 10 mg/kg i.p., rats R1, R2, R3, read-out: Concentration in rat brain homogenate i.p. at 2 h, individual rats",49.1 ng/g
same,concentration at 2 h,"[1]; rat, brain homogenate, intravenous, 10 mg/kg i.v., mean of 3 rats, read-out: Concentration in rat brain homogenate i.v. at 2 h, Mean",386 ng/g
same,concentration at 2 h,"[1]; rat, brain homogenate, intravenous, 10 mg/kg i.v., rats R1, R2, R3, read-out: Concentration in rat brain homogenate i.v. at 2 h, individual rats",323 ng/g
same,concentration at 2 h,"[1]; rat, plasma, intraperitoneal, 10 mg/kg i.p., mean of 3 rats, read-out: Concentration in rat plasma i.p. at 2 h, Mean",91.5 ng/mL
same,concentration at 2 h,"[1]; rat, plasma, intraperitoneal, 10 mg/kg i.p., rats R1, R2, R3, read-out: Concentration in rat plasma i.p. at 2 h, individual rats",123 ng/mL
same,concentration at 2 h,"[1]; rat, plasma, intravenous, 10 mg/kg i.v., mean of 3 rats, read-out: Concentration in rat plasma i.v. at 2 h, Mean",204 ng/mL
same,concentration at 2 h,"[1]; rat, plasma, intravenous, 10 mg/kg i.v., rats R1, R2, R3, read-out: Concentration in rat plasma i.v. at 2 h, individual rats",163 ng/mL
same,blood-brain permeability (in words),"[1]; rat, 10 mg/kg i.v. or i.p., 2 h",excellent blood-brain permeability
same,inhibition at 1 µM,"[2]; 1 μM compound, read-out: % of inhibition at 1 μM, THP1",51%
same,inhibition at 10 µM,"[2]; 10 μM compound, read-out: % of inhibition at 10 μM, THP1",74%
same,Object preference in session 2 (contacts and duration of contacts),"[3]; day 8, two identical objects, vs no preference level",higher than 50%
same,Novel object preference in session 3 (number and duration of contacts),"[3]; day 9, vs 50% level",alleviated the impairments
